Data set [1] concerns Diet Induced Obese (DIO) C57BL/6 mice. The experiment in a line: 10 day DIO mouse model (body weight, food intake, hematology, blood chemistry). It counts as in vivo. An excerpt:
The objective of this study design was to investigate the efficacy of disclosed compounds in a 10 day DIO mouse model. Effects on body weight, food intake, hematology and blood chemistry were the primary readouts of this study design. […] Mice were fed Research Diets D12492 (60% Kcal fat, 20% Kcal carbohydrate and 20% protein) and provided water ad libitum. DIO mice were received and housed in the facility for approximately two weeks prior to the start of test article administration. On Day −4 or −3, mice were randomized into study groups based on body weight and body weights were continued to be recorded daily for the duration of the study. Daily food intake was assessed starting on Study Day −2 by weighing of the food with hopper together to avoid loss of food in transfer.
(§1) Compounds were formulated into a 100% DMSO stock (at 9 mg/mL) prior to the start, and further diluted into the target working concentration using the vehicle of 10% DMSO in water. Prior to test article administration, starting on Day −3 a dosing acclimation occured with all animals receiving a subcutaneous injection of vehicle (10% DMSO) only for 3 days. Starting on Day 1, test compounds or vehicle were administered based on individual body weight, subcutaneously, once a day for 10 days. All mice were sacrificed on Day 11, 24 hours following the final dosing on Day 10. After sacrifice, whole blood was collected and analyzed for hematology and blood chemistry parameters.
(§2) Compounds were tested vs. vehicle at various doses (1.0, 0.5, 0.3, 0.1, 0.03 mpk sc (mg per kg animal weight delivered subcutaneously), and the results are shown in Table 2 below.

Data set [2] concerns embryo/fetal development in pregnant Sprague Dawley rats. To be noted: 6 mpk subcutaneously once every three days, Gestation Days 6-18, pregnant rats. The method, then:
The objective of this study design was to evaluate the potential effects of disclosed compounds on embryo/fetal development when given subcutaneously to pregnant rats once every three days during the critical period of organogenesis (Gestation Days 6-18). Female, Sprague Dawley rats, approximately 10 weeks of age, time bred, were ordered from a certified vendor and housed individually housed in stainless steel cages suspended over flush pans, on a 12-hour light-dark cycle (0700-1900) at 20-26° C. and 30-70% humidity. Rats were fed a standard rodent chow and provided water ad libitum. Rats were received and housed in the facility for a period of approximately 1 to 2 days.
Compounds were formulated using 100% DMSO mixed in Sterile Water for Injection, resulting in 2% DMSO solution in water. If necessary, due to limited solubility of a test article, a higher percentage of DMSO solution in water was used. Groups of 8 mated and presumed pregnant female rats were given subcutaneous doses of vehicle or test article, once every three days, beginning on Gestation Day 6 and ending on Gestation Day 18 (Days 6, 9, 12, 15, and 18), maintained two more days, and then euthanized and necropsied on Gestation Day 20. Body weights was recorded for all animals on Gestation Days 5 (purpose of randomization), 6, 9, 12, 15, 18, and 20 (scheduled euthanasia). Food consumption by weight was recorded on Gestation Days 6, 9, 12, 15, 18, and 20 (scheduled termination).
At necropsy, the dams were examined visually for external abnormalities including palpable masses. The abdominal, thoracic, and cranial cavities and their contents were examined for abnormalities and findings will be recorded. The reproductive tract were examined to record the number of ovarian corpora lutea, the number and location of uterine implantation sites noting the position of the cervix, and the number of early resorptions, late resorptions, live fetuses, and dead fetuses. For dead fetuses and late resorptions, crown-to-rump length and weight were recorded, if possible, and the fetus was discarded. For viable fetuses, weight, sex, and grossly visible external abnormalities were recorded.

Data set [3] relates to Sprague Dawley rats on high fat diet (DIO). The experiment in a line: 11 day rat DIO model (body weight, food intake, hematology, blood chemistry). It counts as in vivo.
Description: The objective of this study design is to investigate the efficacy of disclosed compounds in an 11 day rat DIO model used to screen compounds for pharmacologic efficacy on endpoints related to obesity and metabolism. Effects on body weight, food intake, hematology and blood chemistries were the primary readouts of this study design. […] Rats were fed Research Diets D12451 (45% High Fat) and provided water ad libitum. Rats were received and housed in the facility for at least two or three weeks prior to start of test article administration. On Day −4 or −3, rats were randomized into study groups based on body weight and body weights were continued to be recorded daily for the duration of the study. Daily food intake was assessed starting on Study Day −2 by weighing the hopper including the food to avoid loss of food in transfer.
as §1, with “for 11” for “for 10”, “All animals” for “All mice”, “11, approximately 2” for “11, 24”, “Day 11.” for “Day 10.”
as §2

“And” between values parts separate entries of the source, which are not always exact repeats. Identical values can stand only once. Counter-ions that a name gives are not always drawn.

For the compound `CO[C@@H]1[C@H](OC(=O)N2CC(CCN3CCC(O)CC3)C2)CC[C@]2(CO2)[C@H]1[C@@]1(C)O[C@@H]1CC=C(C)C` [Example 7, (3R,4S,5S,6R)-5-methoxy-4-((2R,3R)-2-methyl-3-(3-methylbut-2-en-1-yl)oxiran-2-yl)-1-oxaspiro[2.5]octan-6-yl 3-(2-(4-hydroxypiperidin-1-yl)ethyl)azetidine-1-carboxylate], the “DIO Mouse 10-day weight loss vs vehicle at indicated dose” value (shortened to “DIO Mouse 10-day weight loss vs vehicle”) in data set [1] (DIO mouse, 0.3 mpk sc, once a day for 10 days) is on record as 1.8%.

On to `CCN(CC)CCNC(=O)CCC1CN(C(=O)O[C@@H]2CC[C@]3(CO3)[C@@H]([C@@]3(C)O[C@@H]3CC=C(C)C)[C@@H]2OC)C1` [Example 88, (3R,4S,5S,6R)-5-methoxy-4-((2R,3R)-2-methyl-3-(3-methylbut-2-enyl)oxiran-2-yl)-1-oxaspiro[2.5]octan-6-yl 3-(3-(2-(diethylamino)ethylamino)-3-oxopropyl)azetidine-1-carboxylate formate], for which the “Rat Embryofetal @6 mpk” value in data set [2] is “Positive”. Besides, the “DIO Rat 11-day weight loss vs vehicle at indicated dose” value in data set [3] (rat, in vivo, sc, 0.3 mg/kg) is 4.4%. Also, the “DIO Mouse 10-day weight loss vs vehicle” value in data set [1] (mouse, in vivo, sc, 0.3 mg/kg) is 9%.

For the compound `CO[C@@H]1[C@H](OC(=O)/C=C/c2ccc(OCCN(C)C)cc2)CC[C@]2(CO2)[C@H]1[C@@]1(C)O[C@@H]1CC=C(C)C` [compound A, [(3R,6R,7S,8S)-7-methoxy-8-[(2R,3R)-2-methyl-3-(3-methylbut-2-enyl)oxiran-2-yl]-2-oxaspiro[2.5]octan-6-yl] (E)-3-[4-[2-(dimethylamino)ethoxy]phenyl]prop-2-enoate, reference compound], the “Rat Embryofetal @6 mpk” value in data set [2] is reported as “Positive”.

As to `CO[C@@H]1[C@H](OC(=O)N2CC(OC(=O)N3CCN(C)CC3)C2)CC[C@]2(CO2)[C@H]1[C@@]1(C)O[C@@H]1CC=C(C)C` [Example 78, 1-(((3R,4S,5S,6R)-5-methoxy-4-((2R,3R)-2-methyl-3-(3-methylbut-2-enyl)oxiran-2-yl)-1-oxaspiro[2.5]octan-6-yloxy)carbonyl)azetidin-3-yl 4-methylpiperazine-1-carboxylate], in data set [2], the “Rat Embryofetal @6 mpk” value is recorded as “Positive”.

As for `CO[C@@H]1[C@H](OC(=O)N2CC(CCN3CC4CCC(C3)O4)C2)CC[C@]2(CO2)[C@H]1[C@@]1(C)O[C@@H]1CC=C(C)C` [Example 33, (4S,5S,6R)-5-methoxy-4-((2R,3R)-2-methyl-3-(3-methylbut-2-enyl)oxiran-2-yl)-1-oxaspiro[2.5]octan-6-yl 3-(2-(8-oxa-3-azabicyclo[3.2.1]octan-3-yl)ethyl)azetidine-1-carboxylate], the percent body weight loss vs vehicle at 0.3 mg/kg in data set [1] (240 h, DIO mouse, 0.3 mpk sc, once a day for 10 days, read-out: DIO Mouse 10-day weight loss vs vehicle at indicated dose) is 15.9%.

`CO[C@@H]1[C@H](OC(=O)N2CC(Cc3ccc(C)nc3)C2)CC[C@]2(CO2)[C@H]1[C@@]1(C)O[C@@H]1CC=C(C)C` [Example 101, (3R,4S,5S,6R)-5-methoxy-4-((2R,3R)-2-methyl-3-(3-methylbut-2-enyl)oxiran-2-yl)-1-oxaspiro[2.5]octan-6-yl 3-((6-methylpyridin-3-yl)methyl)azetidine-1-carboxylate]: the “Rat Embryofetal @6 mpk” value in data set [2] was “Positive”.

On to `CNC(=O)OC1CN(C(=O)O[C@@H]2CC[C@]3(CO3)[C@@H]([C@@]3(C)O[C@@H]3CC=C(C)C)[C@@H]2OC)C1` [Example 74, (3R,4S,5S,6R)-5-methoxy-4-((2R,3R)-2-methyl-3-(3-methylbut-2-enyl)oxiran-2-yl)-1-oxaspiro[2.5]octan-6-yl 3-(methylcarbamoyloxy)azetidine-1-carboxylate], for which, in data set [2], the “Rat Embryofetal @6 mpk” value was “Negative”.

With `CCN(CC)CCCC1CN(C(=O)O[C@@H]2CC[C@]3(CO3)[C@@H]([C@@]3(C)O[C@@H]3CC=C(C)C)[C@@H]2OC)C1` [Example 104, (3R,4S,5S,6R)-5-methoxy-4-((2R,3R)-2-methyl-3-(3-methylbut-2-enyl)oxiran-2-yl)-1-oxaspiro[2.5]octan-6-yl 3-(3-(diethylamino)propyl)azetidine-1-carboxylate], the “Rat Embryofetal @6 mpk” value in data set [2] is “Positive”.

For `CCN(CC)CCC1CN(C(=O)O[C@@H]2CC[C@]3(CO3)[C@@H]([C@@]3(C)O[C@@H]3CC=C(C)C)[C@@H]2OC)C1` [Example 103, (3R,4S,5S,6R)-5-methoxy-4-((2R,3R)-2-methyl-3-(3-methylbut-2-enyl)oxiran-2-yl)-1-oxaspiro[2.5]octan-6-yl 3-(2-(diethylamino)ethyl)azetidine-1-carboxylate], the “Rat Embryofetal @6 mpk” value in data set [2] is reported as “Positive”.

For the compound `CCN(CC)CCC1CCN1C(=O)O[C@@H]1CC[C@]2(CO2)[C@@H]([C@@]2(C)O[C@@H]2CC=C(C)C)[C@@H]1OC` (stereo partly drawn) [Example 106, (3R,4S,5S,6R)-5-methoxy-4-((2R,3R)-2-methyl-3-(3-methylbut-2-enyl)oxiran-2-yl)-1-oxaspiro[2.5]octan-6-yl 2-(2-(diethylamino)ethyl)azetidine-1-carboxylate], the “DIO Rat 11-day weight loss vs vehicle at indicated dose” value in data set [3] (DIO rat, 0.5 mpk sc, once a day for 11 days) is given as 4.82%. For the same compound, the “DIO Mouse 10-day weight loss vs vehicle” value in data set [1] (DIO mouse, 0.1 mpk sc, once a day for 10 days) is 2%; in data set [1] (DIO mouse, 0.3 mpk sc, once a day for 10 days, 0.3 mg/kg), 10.8% and 0.8%.

Take `CO[C@@H]1[C@H](OC(=O)N2CC(CCN3CC(F)(F)C3)C2)CC[C@]2(CO2)[C@H]1[C@@]1(C)O[C@@H]1CC=C(C)C` [Example 2, (3R,4S,5S,6R)-5-methoxy-4-((2R,3R)-2-methyl-3-(3-methylbut-2-enyl)oxiran-2-yl)-1-oxaspiro[2.5]octan-6-yl 3-(2-(3,3-difluoroazetidin-1-yl)ethyl)azetidine-1-carboxylate]: the “Rat Embryofetal @6 mpk” value in data set [2] is “Negative”.

For the compound `CO[C@@H]1[C@H](OC(=O)N2CC(OC(=O)N3CCN(CC(F)(F)F)CC3)C2)CC[C@]2(CO2)[C@H]1[C@@]1(C)O[C@@H]1CC=C(C)C` [Example 81, 1-(((3R,4S,5S,6R)-5-methoxy-4-((2R,3R)-2-methyl-3-(3-methylbut-2-enyl)oxiran-2-yl)-1-oxaspiro[2.5]octan-6-yloxy)carbonyl)azetidin-3-yl 4-(2,2,2-trifluoroethyl)piperazine-1-carboxylate], the “Rat Embryofetal @6 mpk” value in data set [2] is recorded as “Positive”.

`CO[C@@H]1[C@H](OC(=O)N2CC(CCN3CCOCC3)C2)CC[C@]2(CO2)[C@H]1[C@@]1(C)O[C@@H]1CC=C(C)C` [Example 1, (3R,4S,5S,6R)-5-methoxy-4-((2R,3R)-2-methyl-3-(3-methylbut-2-en-1-yl)oxiran-2-yl)-1-oxaspiro[2.5]octan-6-yl 3-(2-morpholinoethyl)azetidine-1-carboxylate]: the “Rat Embryofetal @6 mpk” value in data set [2] was “Negative”.
